# According to patent US20070003585A1, “Topical skin treating compositions” (STIEFEL LABORATORIES, INC., priority 2005, published 2007):
# Where two headings read alike, the source gives them in different places.
# How the values were obtained:
# [1] = Example 15 composition, initial 0.109%
# [2] = Example 12 composition, initial […]
# [3] = Storage stability of composition containing 5.18% of benzoyl peroxide and 0.099% of tazarotene (Example 18); type: physicochemical; settings: Example 18 composition, initial […]
# Text: (§1) The results are as follows:
# [4] = Example 6 composition, initial […]
# [5] = Storage stability of composition containing 2.15% of benzoyl peroxide, […] of tazarotene, and […] of clindamycin (Example 8); type: physicochemical; settings: Example 8 composition, initial […], 6 months
# [6] = Example 11 composition, initial […]
# [7] = Example 7 composition, initial […]
# [8] = Example 13 composition, initial […]
# [9] = Storage stability of composition containing […] of tazarotene and […] of clindamycin (Example 16); type: physicochemical; settings: Example 16 composition, initial […], 6 months
# [10] = Storage stability of composition containing 2.02% of benzoyl peroxide and 0.099% of tazarotene (Example 17); type: physicochemical; settings: Example 17 composition, initial […]
# Text: as §1
# [11] = Storage stability of composition containing 0.209% of tazarotene and 2.13% of clindamycin (Example 14); type: physicochemical; settings: Example 14 composition, initial 0.209%
# [12] = Storage stability of composition containing 2.02% of benzoyl peroxide, […] of tazarotene, and […] of clindamycin (Example 9); type: physicochemical; settings: Example 9 composition, initial […]
smiles,measurement,setting,value
CCOC(=O)c1ccc(C#Cc2ccc3c(c2)C(C)(C)CCS3)nc1 [Tazarotene],Tazarotene (as % w/w),"[1]; 60 days, 6° C.",0.11 % w/w
same,Tazarotene (as % w/w),"[1]; 60 days, 25° C.",0.109 % w/w
same,Tazarotene (as % w/w),"[1]; 60 days, 30° C.",0.105 % w/w
same,Tazarotene (as % w/w),"[1]; 60 days, 40° C.",0.107 % w/w
same,Tazarotene (as % w/w),"[1]; 90 days, 6° C.",0.107 % w/w
same,Tazarotene (as % w/w),"[1]; 90 days, 25° C.",0.111 % w/w
same,Tazarotene (as % w/w),"[1]; 90 days, 30° C.",0.108 % w/w
same,Tazarotene (as % w/w),"[1]; 90 days, 40° C.",0.116 % w/w
same,Tazarotene (as % w/w),"[2]; 2 weeks, 6° C.",0.099 % w/w
same,Tazarotene (as % w/w),"[2]; 2 weeks, 25° C.",0.090 % w/w
same,Tazarotene (as % w/w),"[2]; 2 weeks, 30° C.",0.090 % w/w
same,Tazarotene (as % w/w),"[2]; 2 weeks, 40° C.",0.085 % w/w
same,Tazarotene (as % w/w),"[2]; 6 months, 6° C.",0.096 % w/w
same,Tazarotene (as % w/w),"[2]; 6 months, 25° C.",0.091 % w/w
same,Tazarotene (as % w/w),"[2]; 6 months, 30° C.",0.088 % w/w
same,Tazarotene (as % w/w),"[2]; 6 months, 40° C.",None Detected
same,Tazarotene (as % w/w),"[2]; 90 days, 6° C.",0.102 % w/w
same,Tazarotene (as % w/w),"[2]; 90 days, 25° C.",0.090 % w/w
same,Tazarotene (as % w/w),"[2]; 90 days, 30° C.",0.089 % w/w
same,Tazarotene (as % w/w),"[2]; 90 days, 40° C.",0.081 % w/w
same,Tazarotene (as % w/w),"[3]; 6 months, 6° C.",0.106 % w/w
same,Tazarotene (as % w/w),"[3]; 6 months, 25° C.",0.088 % w/w
same,Tazarotene (as % w/w),"[3]; 6 months, 30° C.",0.083 % w/w
same,Tazarotene (as % w/w),"[3]; 6 months, 40° C.",0.004 % w/w
same,Tazarotene (as % w/w),"[3]; 90 days, 6° C.",0.103 % w/w
same,Tazarotene (as % w/w),"[3]; 90 days, 25° C.",0.093 % w/w
same,Tazarotene (as % w/w),"[3]; 90 days, 30° C.",0.087 % w/w
same,Tazarotene (as % w/w),"[3]; 90 days, 40° C.",0.051 % w/w
same,Tazarotene (as % w/w),"[4]; 2 weeks, 25° C.",0.088 % w/w
same,Tazarotene (as % w/w),"[4]; 2 weeks, 30° C.",0.085 % w/w
same,Tazarotene (as % w/w),"[4]; 2 weeks, 40° C.",0.081 % w/w
same,Tazarotene (as % w/w),"[4]; 90 days, 6° C.",0.094 % w/w
same,Tazarotene (as % w/w),"[4]; 90 days, 25° C.",0.090 % w/w
same,Tazarotene (as % w/w),"[4]; 90 days, 30° C.",0.085 % w/w
same,Tazarotene (as % w/w),"[4]; 90 days, 40° C.",0.078 % w/w
same,Tazarotene (as % w/w),[5]; 6° C.,0.099 % w/w
same,Tazarotene (as % w/w),[5]; 25° C.,0.097 % w/w
same,Tazarotene (as % w/w),[5]; 30° C.,0.079 % w/w
same,Tazarotene (as % w/w),[5]; 40° C.,0.057 % w/w
same,Tazarotene (as % w/w),"[6]; 2 weeks, 6° C.",0.106 % w/w
same,Tazarotene (as % w/w),"[6]; 2 weeks, 25° C.",0.098 % w/w
same,Tazarotene (as % w/w),"[6]; 2 weeks, 40° C.",0.089 % w/w
same,Tazarotene (as % w/w),"[6]; 6 months, 6° C.",0.107 % w/w
same,Tazarotene (as % w/w),"[6]; 6 months, 25° C.",0.093 % w/w
same,Tazarotene (as % w/w),"[6]; 6 months, 40° C.",0.014 % w/w
same,Tazarotene (as % w/w),"[6]; 30 days, 6° C.",0.105 % w/w
same,Tazarotene (as % w/w),"[6]; 30 days, 25° C.",0.094 % w/w
same,Tazarotene (as % w/w),"[6]; 30 days, 40° C.",0.084 % w/w
same,Tazarotene (as % w/w),"[6]; 90 days, 6° C.",0.106 % w/w
same,Tazarotene (as % w/w),"[6]; 90 days, 25° C.",0.093 % w/w
same,Tazarotene (as % w/w),"[6]; 90 days, 40° C.",0.086 % w/w
same,Tazarotene (as % w/w),"[7]; 2 weeks, 6° C.",0.104 % w/w
same,Tazarotene (as % w/w),"[7]; 2 weeks, 25° C.",0.098 % w/w
same,Tazarotene (as % w/w),"[7]; 2 weeks, 30° C.",0.088 % w/w
same,Tazarotene (as % w/w),"[7]; 2 weeks, 40° C.",0.080 % w/w
same,Tazarotene (as % w/w),"[7]; 6 months, 6° C.",0.106 % w/w
same,Tazarotene (as % w/w),"[7]; 6 months, 25° C.",0.090 % w/w
same,Tazarotene (as % w/w),"[7]; 6 months, 30° C.",0.082 % w/w
same,Tazarotene (as % w/w),"[7]; 6 months, 40° C.",0.046 % w/w
same,Tazarotene (as % w/w),"[8]; 2 weeks, first temperature column (head not given; 6° C. by analogy)",0.097 % w/w
same,Tazarotene (as % w/w),"[8]; 2 weeks, fourth temperature column (head not given; 40° C. by analogy)",0.081 % w/w
same,Tazarotene (as % w/w),"[8]; 2 weeks, second temperature column (head not given; 25° C. by analogy)",0.089 % w/w
same,Tazarotene (as % w/w),"[8]; 2 weeks, third temperature column (head not given; 30° C. by analogy)",0.086 % w/w
same,Tazarotene (as % w/w),"[8]; 6 months, first temperature column (head not given; 6° C. by analogy)",0.098 % w/w
same,Tazarotene (as % w/w),"[8]; 6 months, fourth temperature column (head not given; 40° C. by analogy)",None Detected
same,Tazarotene (as % w/w),"[8]; 6 months, second temperature column (head not given; 25° C. by analogy)",0.085 % w/w
same,Tazarotene (as % w/w),"[8]; 6 months, third temperature column (head not given; 30° C. by analogy)",0.085 % w/w
same,Tazarotene (as % w/w),"[8]; 90 days, first temperature column (head not given; 6° C. by analogy)",0.100 % w/w
same,Tazarotene (as % w/w),"[8]; 90 days, fourth temperature column (head not given; 40° C. by analogy)",0.079 % w/w
same,Tazarotene (as % w/w),"[8]; 90 days, second temperature column (head not given; 25° C. by analogy)",0.090 % w/w
same,Tazarotene (as % w/w),"[8]; 90 days, third temperature column (head not given; 30° C. by analogy)",0.087 % w/w
same,Tazarotene (as % w/w),[9]; 6° C.,0.101 % w/w
same,Tazarotene (as % w/w),[9]; 25° C.,0.102 % w/w
same,Tazarotene (as % w/w),[9]; 30° C.,0.104 % w/w
same,Tazarotene (as % w/w),[9]; 40° C.,0.103 % w/w
same,Tazarotene (as % w/w),"[10]; 6 months, 6° C.",0.108 % w/w
same,Tazarotene (as % w/w),"[10]; 6 months, 25° C.",0.081 % w/w
same,Tazarotene (as % w/w),"[10]; 6 months, 30° C.",0.070 % w/w
same,Tazarotene (as % w/w),"[10]; 6 months, 40° C.",0.009 % w/w
same,Tazarotene (as % w/w),"[10]; 90 days, 6° C.",0.106 % w/w
same,Tazarotene (as % w/w),"[10]; 90 days, 25° C.",0.088 % w/w
same,Tazarotene (as % w/w),"[10]; 90 days, 30° C.",0.085 % w/w
same,Tazarotene (as % w/w),"[10]; 90 days, 40° C.",0.044 % w/w
same,Tazarotene (as % w/w),"[11]; 4 weeks, 25° C.",0.208 % w/w
same,Tazarotene (as % w/w),"[11]; 4 weeks, 30° C.",0.208 % w/w
same,Tazarotene (as % w/w),"[11]; 4 weeks, 40° C.",0.205 % w/w
same,Tazarotene (as % w/w),"[11]; 6 months, 25° C.",0.206 % w/w
same,Tazarotene (as % w/w),"[11]; 6 months, 30° C.",0.206 % w/w
same,Tazarotene (as % w/w),"[11]; 6 months, 40° C.",0.205 % w/w
same,Tazarotene (as % w/w),"[11]; 90 days, 25° C.",0.204 % w/w
same,Tazarotene (as % w/w),"[11]; 90 days, 30° C.",0.208 % w/w
same,Tazarotene (as % w/w),"[11]; 90 days, 40° C.",0.208 % w/w
same,Tazarotene (as % w/w),"[12]; 6 months, 6° C.",0.104 % w/w
same,Tazarotene (as % w/w),"[12]; 6 months, 25° C.",0.089 % w/w
same,Tazarotene (as % w/w),"[12]; 6 months, 30° C.",0.089 % w/w
same,Tazarotene (as % w/w),"[12]; 6 months, 40° C.",0.003 % w/w
same,Tazarotene (as % w/w),"[12]; 90 days, 6° C.",0.103 % w/w
same,Tazarotene (as % w/w),"[12]; 90 days, 25° C.",0.092 % w/w
same,Tazarotene (as % w/w),"[12]; 90 days, 30° C.",0.090 % w/w
same,Tazarotene (as % w/w),"[12]; 90 days, 40° C.",0.071 % w/w
